Experimental data published in article PMC10608878, “Synthesis and Antiproliferative Activity of 2,6-Disubstituted Imidazo[4,5-b]pyridines Prepared by Suzuki Cross Coupling” (Molecules, 2023).
Read-outs that look alike come from different tables or passages of the source.

Tests used:
[1] = tested on: normal peripheral blood mononuclear cells (PBMC); assay: Toxicity in normal peripheral blood mononuclear cells; format: cell-based
Excerpt: Figure 6 Toxicity of compounds 13 and 19 in normal cells.

[2] = tested on: HCT-116 colorectal carcinoma cells; assay: Antiproliferative activity, HCT-116 cells; format: cell-based, human; details: Homo sapiens, HCT-116, 72 h, HCT-116, 72 h incubation
Procedure: (§1) All prepared imidazo[4,5-b]pyridines were tested for their antiproliferative activity against the following cancer cell lines: LN-229—glioblastoma, Capan-1—pancreatic adenocarcinoma, HCT-116—colorectal carcinoma, NCI-H460—lung carcinoma, DND-41—acute lymphoblastic leukemia, HL-60—acute myeloid leukemia, K-562—chronic myeloid leukemia, and Z-138—non-Hodgkin lymphoma cancer cells. An overview of the results is presented in Table 2 as IC50 values (50% inhibitory concentration). An established antitumor drug, etoposide (ETO), was included for comparison.
(§2) For proliferation assays, the human cancer cell lines used in this manuscript, namely Capan-1, HCT-116, NCI-H460, LN-229, HL-60, K-562, and Z-138, were acquired from the American Type Culture Collection (ATCC, Manassas, VA, USA), while the DND-41 cell line was purchased from the Deutsche Sammlung von Mikroorganismen und Zellkulturen (DSMZ Leibniz-Institut, Braunschweig, Germany). Culture media were purchased from Gibco (Gibco Life Technologies, Merelbeke, Belgium) and supplemented with 10% fetal bovine serum (HyClone, Cytiva, Marlborough, MA, USA). Adherent cell lines LN-229, HCT-116, NCI-H460, and Capan-1 cells were seeded in 384-well tissue culture plates (Greiner, Kremsmünster, Austria) at a density between 500 and 1500 cells per well (500 cells per well for Capan-1, 1000 cells per well for LN-229 and HCT-116, and 1500 cells per well for NCI-H460). The cells were treated with seven different concentrations of the test compounds in a 5-fold dilution series ranging from 100 to 0.006 µM after overnight incubation. Suspension cell lines HL-60, K-562, Z-138, and DND-41 were seeded at densities ranging from 2500 to 5500 cells per well (2500 cells per well for HL-60, K-562, and Z-138, and 5500 cells per well for DND-41) in 384-well culture plates containing the test compounds at the same concentration points. All conditions were incubated for 72 h before measuring the cell viability by the CellTiter 96® AQueous Non-Radioactive Cell Proliferation Assay (Promega, Madison, WA, USA) according to the manufacturer’s instructions. After 3 h, absorbance of all conditions was measured at 490 nm using a SpectraMax Plus 384 (Molecular Devices, San Jose, CA, USA), and the OD values were used to calculate the 50% inhibitory concentration (IC50). Compounds were tested in two independent experiments.

[3] = tested on: NCI-H460 lung carcinoma cells; assay: Antiproliferative activity, NCI-H460 cells; format: cell-based, human; details: Homo sapiens, NCI-H460, 72 h, NCI-H460, 72 h incubation
Procedure: as §1, §2

[4] = tested on: K-562 chronic myeloid leukemia cells; assay: Antiproliferative activity, K-562 cells; format: cell-based, human; details: Homo sapiens, K562, 72 h, K-562, 72 h incubation
Procedure: as §1, §2

human cancer cell lines = assay: Antiproliferative activity, panel of human cancer cell lines; format: cell-based
Procedure: as §1, §2

[5] = tested on: LN-229 glioblastoma cells; assay: Antiproliferative activity, LN-229 cells; format: cell-based, human; details: Homo sapiens, LN-229, 72 h, LN-229, 72 h incubation
Procedure: as §1, §2

[6] = tested on: HL-60 acute myeloid leukemia cells; assay: Antiproliferative activity, HL-60 cells; format: cell-based, human; details: Homo sapiens, HL-60, 72 h, HL-60, 72 h incubation
Procedure: as §1, §2

[7] = tested on: Capan-1 pancreatic adenocarcinoma cells; assay: Antiproliferative activity, Capan-1 cells; format: cell-based, human; details: Homo sapiens, CAPAN-1, 72 h, Capan-1, 72 h incubation
Procedure: as §1, §2

[8] = tested on: Z-138 non-Hodgkin lymphoma cells; assay: Antiproliferative activity, Z-138 cells; format: cell-based, human; details: Homo sapiens, Z-138, 72 h, Z-138, 72 h incubation
Procedure: as §1, §2

[9] = tested on: DND-41 acute lymphoblastic leukemia cells; assay: Antiproliferative activity, DND-41 cells; format: cell-based, human; details: Homo sapiens, DND41, 72 h, DND-41, 72 h incubation
Procedure: as §1, §2

host cell lines = host cell lines of the antiviral assays
[10] = tested on: human coronavirus HCoV-229E; assay: organism not typed; format: cell-based, human coronavirus 229E; details: HEL 299 host cells; read-out: Antiviral Activity (EC50) HCoV 229E HEL 299
in vitro [11] = details: human
in vitro [12] = details: African green monkey
in vitro [13] = details: human; remark: listed apart in the source
[14] = tested on: human coronavirus HCoV-NL63; assay: Antiviral CPE assay, HCoV-NL63 in Hep3B; format: cell-based; details: Hep3B host cells
Zika virus (ZIKV) = assay: Antiviral CPE assay, ZIKV in VeroE6; format: cell-based; details: VeroE6 host cells
[15] = tested on: respiratory syncytial virus (RSV) A; assay: Antiviral CPE assay, RSV in Hep-2; format: cell-based; details: human respiratory syncytial virus; Hep-2 host cells
[16] = tested on: influenza A/H1N1 (A/Ned/378/05); assay: Antiviral CPE assay, influenza A/H1N1 in MDCK; format: cell-based; details: Influenza A virus, MDCK host cells
[17] = tested on: human coronavirus HCoV-OC43; assay: Antiviral CPE assay, HCoV-OC43 in HEL 299; format: cell-based; details: HEL 299 host cells
[18] = tested on: Semliki Forest virus (SFV); assay: Antiviral CPE assay, SFV in VeroE6; format: cell-based; details: VeroE6 host cells
Sindbis virus (SINDV) = assay: Antiviral CPE assay, SINDV in VeroE6; format: cell-based; details: VeroE6 host cells
yellow fever virus (YFV) = assay: microbe, parasite or virus in culture; format: cell-based
in vitro [19] = details: dog
[20] = tested on: influenza A/H3N2 (A/HK/7/87); assay: Antiviral CPE assay, influenza A/H3N2 in MDCK; format: cell-based; details: Influenza A virus, MDCK host cells
[21] = tested on: herpes simplex virus-1 (HSV-1 KOS); assay: Antiviral CPE assay, HSV-1 in HEL 299; format: cell-based; details: HEL 299 host cells
in vitro [22] = details: human; remark: listed apart in the source
[23] = tested on: influenza B (B/Ned/537/05); assay: Antiviral CPE assay, influenza B in MDCK; format: cell-based; details: Influenza B virus; MDCK host cells
LN-229 cells = assay: Cell cycle progression, LN-229 cells; format: cell-based, human
Excerpt: (§3) Lastly, the effects of lead compound 19 on the cell cycle progression of three cancer cell lines, namely HEp-2, NCI-H460, and LN-229, were explored.
(§4) Figure 7 The effects of lead compound 19 on cell cycle progression of NCI-H460 (left), LN-229 (middle), and Hep-2 (right) cells.

NCI-H460 cells = assay: Cell cycle progression, NCI-H460 cells; format: cell-based, human
Excerpt: as §3, §4

HEp-2 cells = assay: Cell cycle progression, HEp-2 cells; format: cell-based, human
Excerpt: as §3, §4

HEL 299 cells = details: read-out: Cytotoxicity (CC50) HEL 299; uninfected HEL 299 cells
VeroE6 cells = details: read-out: Cytotoxicity (CC50) Vero E6; uninfected Vero E6 cells
[24] = most/majority of the tested cancer cell lines, read-out: IC50 range against most of the tested cell lines

| Compound | Effect on viability of PBMC ([1]; 10 µM) | Effect on viability of PBMC ([1]; 100 µM (highest dose tested)) | IC50 [2] | IC50 [3] | IC50 [4] | IC50 (human cancer cell lines; [24]) | IC50 [5] | IC50 [6] | IC50 [7] | IC50 [8] | IC50 [9] | Cytotoxicity on host cell lines (host cell lines) | EC50 [10] | CC50 (in vitro [11]) | CC50 (in vitro [13]) | EC50 [14] | EC50 [15] | EC50 ([17]; Betacoronavirus 1, OC43) | EC50 ([21]; Human alphaherpesvirus 1) | CC50 (in vitro [22]) | other results |
| --- | --- | --- | --- | --- | --- | --- | --- | --- | --- | --- | --- | --- | --- | --- | --- | --- | --- | --- | --- | --- | --- |
| Oc1ccc(-c2cnc3[nH]c(-c4ccccc4)nc3c2)cc1 [Compound 13, 4-(2-phenyl-3H-imidazo [4,5-b]pyridin-6-yl)phenol] | little to no effect | negatively impacted the viability | 3.94 µM | 4.25 µM | 3.42 µM | 1.45 to 4.25 µM | 4.1 µM | 1.65 µM | 1.5 µM | 1.87 µM | 4.25 µM | cytotoxicity was observed on all host cell lines, with the exception of the non-cancerous HEL 229 cells |  |  |  |  |  |  |  |  | IC50 (human cancer cell lines; Capan-1, HL-60 and Z-138 cell lines, read-out: IC50 range, particularly strong inhibition): 1.5 to 1.87 µM |
| N#Cc1ccc(-c2cnc3[nH]c(-c4ccccc4)nc3c2)cc1 [Compound 15, 4-(2-phenyl-3H-imidazo [4,5-b]pyridin-6-yl)benzonitrile] |  |  | > 100 µM | > 100 µM | > 100 µM |  | 79.2 µM | 37.2 µM | 10.8 µM | 34.4 µM | > 100 µM |  | 31.3 µM | > 50 µM | > 50 µM | > 50 µM | > 50 µM | > 50 µM | > 50 µM | > 50 µM | CC50 (in vitro [12]): > 50 µM; EC50 (Zika virus (ZIKV); Zika virus, Vero C1008): > 50 µM; EC50 [16]: 33.5 µM; EC50 ([18]; Semliki Forest virus, Vero C1008): > 50 µM; EC50 (Sindbis virus (SINDV); Sindbis virus, Vero C1008): > 50 µM; EC50 (yellow fever virus (YFV); Yellow fever virus, Vero C1008, read-out: Antiviral Activity (EC50) YFV VeroE6): > 50 µM; CC50 (in vitro [19]): > 50 µM; EC50 [20]: 39.5 µM; EC50 [23]: 34.5 µM |
| Cn1c(-c2ccccc2)nc2cc(-c3ccc(O)cc3)cnc21 [Compound 19, 4-(3-methyl-2-phenyl-3H-imidazo [4,5-b]pyridin-6-yl)phenol] | little to no effect | negatively impacted the viability | 2.32 µM | 2.83 µM | 1.5 µM | 1.45 to 4.25 µM | 1.77 µM | 3.3 µM | 1.9 µM | 1.45 µM | 1.57 µM | cytotoxicity was observed on all host cell lines, with the exception of the non-cancerous HEL 229 cells |  |  |  |  |  |  |  |  | IC50 (human cancer cell lines; Capan-1, LN-229, DND-41, K-562 and Z-138 cell lines, read-out: IC50 range, lowest inhibitory concentrations): 1.45 to 1.9 µM; Effect on cell cycle progression (LN-229 cells): strong accumulation of cells in the G2/M phase; Effect on cell cycle progression (NCI-H460 cells): strong accumulation of cells in the G2/M phase; Effect on cell cycle progression (HEp-2 cells): strong accumulation of cells in the G2/M phase |
| Cn1c(-c2ccccc2)nc2cc(-c3ccc(C(N)=O)cc3)cnc21 [Compound 22, 4-(3-methyl-2-phenyl-3H-imidazo[4,5-b]pyridin-6-yl)benzamide] |  |  | > 100 µM | > 100 µM | > 100 µM |  | > 100 µM | 70.9 µM | > 100 µM | 58.1 µM | > 100 µM |  |  |  |  |  |  |  |  |  | melting point: > 300 °C |
| CCOC(=O)[C@H]1O[C@@H]1C(=O)N[C@@H](CC(C)C)C(=O)NCCC(C)C [Compound E64d] |  |  |  |  |  |  |  |  |  |  |  |  | 2 µM |  |  |  |  |  |  |  | EC50 (Zika virus (ZIKV)): 27.8 µM; EC50 [17]: 3.9 µM; EC50 [18]: > 100 µM; EC50 (Sindbis virus (SINDV)): > 100 µM; EC50 (yellow fever virus (YFV); VeroE6 host cells, read-out: Antiviral Activity (EC50) YFV VeroE6): > 100 µM; CC50 (HEL 299 cells): > 100 µM; CC50 (VeroE6 cells): > 100 µM; EC50 [21]: > 100 µM |
| CCC(CC)COC(=O)[C@H](C)N[P@](=O)(OC[C@H]1O[C@@](C#N)(c2ccc3c(N)ncnn23)[C@H](O)[C@@H]1O)Oc1ccccc1 [Remdesivir, remdesivir] |  |  |  |  |  |  |  |  |  |  |  |  | 0.2 µM | > 10 µM | > 10 µM | 0.2 µM | 0.006 µM | 0.06 µM | > 10 µM | > 10 µM |  |
